The values below come from PMC10967730, “Identification and Functional Validation of Two Novel Antioxidant Peptides in Saffron” (Antioxidants, 2024).

Ends that are not written are not given here.

One data set has as its system HepG2 cells. The experiment in a line: MTT cell viability of HepG2 cells. Particulars: for Effect on the viability of HepG2 cells: MTT, peptide 0.01–0.1 mg/mL.
For data set [1] the following is noted: cited from earlier work. From the text: Subsequently, the ABTS method was utilized to determine the total antioxidant activity of the stigma protein. […] We screened 289 saffron antioxidant peptides by comparing with the BIOPEP database. Among them, the saffron peptides with high abundance in the range from tetrapeptide to decapeptide were selected. […] It has been reported that hydrophobic a ...

Method for HepG2 cells: The HepG2 cells were cultured in DMEM (Gibco, New York, NY, USA) containing 10% (v/v) fetal bovine serum (HyClone, Logan, UT, USA) and 1% (v/v) penicillin/streptomycin (Gibco, New York, NY, USA) at 37 °C and 5% CO2.
The cells were passaged every 2 days, with a passage ratio of 1:2 when the cells grew to more than 80% confluence. Then, the HepG2 cells were distributed in 96-well culture plates at a density of 2.5 × 10^4 cells per well. When the cells were cultured for 24 h in DMEM medium, the medium was removed and replaced with a new medium containing various concentrations of H2O2 (100 mM, 300 mM, 500 mM, 700 mM, 900 mM, and 1100 mM), and the control cells were grown in DMEM. MTT (3-(4,5-dimethylthiazol2-yl)-2,5-diphenyltetrazolium bromide; Sigma-Aldrich, St. Louis, MO, USA) was added to the wells and the cells were incubated for 2 h at 37 °C. Then, DMSO was added to the wells for dissolution of formazan granules produced by the live cells and the absorbance measurements were performed at 540 nm to ensure the half inhibitory concentration (IC50) of H2O2 [30].
The safe and harmless peptide concentrations were also determined by the above method. Different concentrations of peptides (0.01 mg/mL, 0.02 mg/mL, 0.04 mg/mL, 0.06 mg/mL, 0.08 mg/mL, and 0.1 mg/mL) also act on cells, and cell viability was detected by MTT to screen out the safe and harmless peptide concentrations.

As for `OO` [H2O2], in the data set with HepG2 cells (HepG2, MTT, H2O2 300 mM), the Cell viability decline entry was “about 50%”.

Consider VDPYFNK [VDPYFNK], for which, in the data set on HepG2 cells, the “Effect on the viability of HepG2 cells” value is “no significant effects”. For the compound `N[C@@H](Cc1ccccc1)C(=O)O` [Phe], the “Concentration at which ABTS scavenging activity is shown” value in data set [1] is 10^−3 mol/L.

For the compound DGGSDYLGK [DGGSDYLGK], the “Effect on the viability of HepG2 cells” value with HepG2 cells is “no significant effects”.
